The target of one assay is CI-MPR. The arrangement: method as in PMID 30843882. Conditions: rhGAA with higher M6P content; read-out: apparent KD; cited from earlier work.
The test system of assay [1] is GAA-deficient multinucleated myotubes (KO). Briefly: Western blot of lysosomal (LAMP1) and endosomal (Rab5) markers. Format: cell-based, mouse. Conditions: 5 μM for 24 hours.
Assay [2] deals with T1, Recombinant human IGF-II R (CI-MPR) (Homo sapiens, UniProt P11717).
T1 construct: purchased R&D Systems
Briefly: SPR binding to immobilized CI-MPR. As to conditions: SPR, immobilized CI-MPR.
Description: Surface Plasmon Resonance (SPR) Measurements. SPR measurements were performed on a Biacore T200 instrument (GE Healthcare). Recombinant human IGF-II R (CI-MPR) was purchased
from R&D Systems. Approximately 7000 resonance units (RU) of CI-MPR was immobilized on a
CM5 sensor chip in a sodium acetate buffer (25 μg/mL, pH 4.0) at 25 °C, using the amine coupling kit
provided by the manufacturer. Mannose 6-phosphate containing glycopeptides or glycoproteins were
determined at 25 °C under a flow rate of 10 μL/min. HBS-P+ buffer (10 mM HEPES, 150 mM NaCl,
0.05% surfactant P20, pH 7.4) was used as sample buffer and running buffer. Association was
measured for 3 min and dissociation for 10 min at same flow rate (10 μL/min). The surface
and glycoprotein analytes flowed over an immobilized chip with 2-fold serial dilution of the highest
concentration of 4 μM (for glycopeptides) or 1 μM (for RNase B) or 250 nM (for rhGAA).
analyses were performed by global fitting of the binding data to a 1:1 Langmuir binding model using

The test system of assay [3] is GAA-deficient multinucleated myotubes (KO). Put plainly: Lamp1 immunostaining of myotubes (lysosomal swelling). Format: cell-based, mouse. As to conditions: 5 μM for 24 hours, confocal images. An excerpt:
The effect of the Endo-A and Endo-F3 remodeled rhGAA was confirmed by immunostaining of myotubes with Lamp1. […] The therapeutic potential of the M6P glycan-remodeled rhGAA in lysosomal glycogen reduction and reversal of muscle pathology will be further evaluated in Pompe disease animal models in future studies.
Fig. 5 Effect of the therapeutic enzymes on lysosomal swelling and glycogen content in GAA KO (KO) myotubes. […] Nuclei are stained with DAPI (blue). Bar: 10 μm. (b) Graph illustrates glycogen levels measured in cell lysates from WT, untreated- and treated KO myotubes. […] Statistical significance was determined by one-way ANOVA; graph represents mean ± SD. **p <0.01; ****p <0.0001; ns – statistically insignificant.
(§1) Measurement of cell-associated GAA activity. The GAA activity in the cells was measured by using 4-methylumbelliferyl-α-D-glucopyranoside (4-MU- α-glucopyranoside; Sigma-Aldrich #M9766) as the fluorogenic GAA substrate as described.[13] […] Fluorescence was measured on a multi-label plate reader (TECAN, SPARK 10M) at 360 nm excitation/465 nm emission.
(§2) Measurement of the glycogen content. The glycogen content was measured as the amount of glucose released after glycogen digestion with Aspergillus Niger amyloglucosidase (Sigma-Aldrich). […]

Assay [4] shares this test system. Briefly: Western blot (anti-human GAA) of treated muscle cell lysates. It counts as cell-based, mouse. As to conditions: 5 μM for 24 hours, Western blot with anti-human GAA antibodies. Here is the method: The available anti-human GAA antibodies detected a strong non-specific band in mouse muscle cells as indicated by its presence in both WT and GAA-deficient cell (Fig. 4b, right panel). Previous studies have shown that the mature 76 kDa form of GAA has a higher affinity and activity towards glycogen.[31,50]
Fig. 4 Effect of the therapeutic enzymes in GAA KO (KO) myotubes. […] GAA activity in cell lysates of wild type (WT) myotubes was measured for comparison. The KO cells were treated for 24 hours with 5 μM of each of the recombinant enzyme; n = 5 for each condition. Statistical significance was determined by one-way ANOVA; graph represents mean ± SD. *p <0.05; ****p <0.0001; ns – statistically insignificant. (b) Western blot analysis (with anti-human GAA antibodies) of muscle cell lysates treated with the recombinant enzymes; GAPDH was used as loading control. […]
as §1, §2

For assay [5] the test system is unchanged. Put plainly: Cell-associated GAA activity in treated GAA KO myotubes. Format: cell-based, mouse. As to conditions: 5 μM for 24 hours, n = 5, versus untreated cells. An excerpt:
To evaluate the effect of the Endo-A (69) and Endo-F3 (70) remodeled rhGAA in the disease-relevant muscle cells, we used GAA-deficient multinucleated myotubes (KO) as an in vitro cell model system for Pompe disease.[48,49] These myotubes are formed from conditionally immortalized myoblasts derived from the GAA knockout mice; unlike myoblasts, the differentiated myotubes replicate the primary defect of the disease, namely, the enlargement of glycogen-laden lysosomes.
The available anti-human GAA antibodies detected a strong non-specific band in mouse muscle cells as indicated by its presence in both WT and GAA-deficient cell (Fig. 4b, right panel). Previous studies have shown that the mature 76 kDa form of GAA has a higher affinity and activity towards glycogen.[31,50] […]
BIAcore T200 evaluation software. rhGAA enzyme activity assay. The enzyme activity was assayed by using the substrate 4-methylumbelliferyl-α-D-glucopyranoside (4-MUG) (Sigma-Aldrich) which generates fluorescence on digestion.[9, 10] […] The reaction was monitored at 0 min, 1 min, 2 min, 5 min, 10 min and 15 min by taking 20 μL of aliquot and add ing 50 μL of stop buffer (100 mM glycine/NaOH, pH 11). Fluorescence was measured by a spectrophotometer with 355 nm excitation and 460 nm emission, and the error bar was based on three independent assays. […]

Entries after “also recorded” stand apart in the source; their conditions may differ.

T1 sequence (P11717 41-2491): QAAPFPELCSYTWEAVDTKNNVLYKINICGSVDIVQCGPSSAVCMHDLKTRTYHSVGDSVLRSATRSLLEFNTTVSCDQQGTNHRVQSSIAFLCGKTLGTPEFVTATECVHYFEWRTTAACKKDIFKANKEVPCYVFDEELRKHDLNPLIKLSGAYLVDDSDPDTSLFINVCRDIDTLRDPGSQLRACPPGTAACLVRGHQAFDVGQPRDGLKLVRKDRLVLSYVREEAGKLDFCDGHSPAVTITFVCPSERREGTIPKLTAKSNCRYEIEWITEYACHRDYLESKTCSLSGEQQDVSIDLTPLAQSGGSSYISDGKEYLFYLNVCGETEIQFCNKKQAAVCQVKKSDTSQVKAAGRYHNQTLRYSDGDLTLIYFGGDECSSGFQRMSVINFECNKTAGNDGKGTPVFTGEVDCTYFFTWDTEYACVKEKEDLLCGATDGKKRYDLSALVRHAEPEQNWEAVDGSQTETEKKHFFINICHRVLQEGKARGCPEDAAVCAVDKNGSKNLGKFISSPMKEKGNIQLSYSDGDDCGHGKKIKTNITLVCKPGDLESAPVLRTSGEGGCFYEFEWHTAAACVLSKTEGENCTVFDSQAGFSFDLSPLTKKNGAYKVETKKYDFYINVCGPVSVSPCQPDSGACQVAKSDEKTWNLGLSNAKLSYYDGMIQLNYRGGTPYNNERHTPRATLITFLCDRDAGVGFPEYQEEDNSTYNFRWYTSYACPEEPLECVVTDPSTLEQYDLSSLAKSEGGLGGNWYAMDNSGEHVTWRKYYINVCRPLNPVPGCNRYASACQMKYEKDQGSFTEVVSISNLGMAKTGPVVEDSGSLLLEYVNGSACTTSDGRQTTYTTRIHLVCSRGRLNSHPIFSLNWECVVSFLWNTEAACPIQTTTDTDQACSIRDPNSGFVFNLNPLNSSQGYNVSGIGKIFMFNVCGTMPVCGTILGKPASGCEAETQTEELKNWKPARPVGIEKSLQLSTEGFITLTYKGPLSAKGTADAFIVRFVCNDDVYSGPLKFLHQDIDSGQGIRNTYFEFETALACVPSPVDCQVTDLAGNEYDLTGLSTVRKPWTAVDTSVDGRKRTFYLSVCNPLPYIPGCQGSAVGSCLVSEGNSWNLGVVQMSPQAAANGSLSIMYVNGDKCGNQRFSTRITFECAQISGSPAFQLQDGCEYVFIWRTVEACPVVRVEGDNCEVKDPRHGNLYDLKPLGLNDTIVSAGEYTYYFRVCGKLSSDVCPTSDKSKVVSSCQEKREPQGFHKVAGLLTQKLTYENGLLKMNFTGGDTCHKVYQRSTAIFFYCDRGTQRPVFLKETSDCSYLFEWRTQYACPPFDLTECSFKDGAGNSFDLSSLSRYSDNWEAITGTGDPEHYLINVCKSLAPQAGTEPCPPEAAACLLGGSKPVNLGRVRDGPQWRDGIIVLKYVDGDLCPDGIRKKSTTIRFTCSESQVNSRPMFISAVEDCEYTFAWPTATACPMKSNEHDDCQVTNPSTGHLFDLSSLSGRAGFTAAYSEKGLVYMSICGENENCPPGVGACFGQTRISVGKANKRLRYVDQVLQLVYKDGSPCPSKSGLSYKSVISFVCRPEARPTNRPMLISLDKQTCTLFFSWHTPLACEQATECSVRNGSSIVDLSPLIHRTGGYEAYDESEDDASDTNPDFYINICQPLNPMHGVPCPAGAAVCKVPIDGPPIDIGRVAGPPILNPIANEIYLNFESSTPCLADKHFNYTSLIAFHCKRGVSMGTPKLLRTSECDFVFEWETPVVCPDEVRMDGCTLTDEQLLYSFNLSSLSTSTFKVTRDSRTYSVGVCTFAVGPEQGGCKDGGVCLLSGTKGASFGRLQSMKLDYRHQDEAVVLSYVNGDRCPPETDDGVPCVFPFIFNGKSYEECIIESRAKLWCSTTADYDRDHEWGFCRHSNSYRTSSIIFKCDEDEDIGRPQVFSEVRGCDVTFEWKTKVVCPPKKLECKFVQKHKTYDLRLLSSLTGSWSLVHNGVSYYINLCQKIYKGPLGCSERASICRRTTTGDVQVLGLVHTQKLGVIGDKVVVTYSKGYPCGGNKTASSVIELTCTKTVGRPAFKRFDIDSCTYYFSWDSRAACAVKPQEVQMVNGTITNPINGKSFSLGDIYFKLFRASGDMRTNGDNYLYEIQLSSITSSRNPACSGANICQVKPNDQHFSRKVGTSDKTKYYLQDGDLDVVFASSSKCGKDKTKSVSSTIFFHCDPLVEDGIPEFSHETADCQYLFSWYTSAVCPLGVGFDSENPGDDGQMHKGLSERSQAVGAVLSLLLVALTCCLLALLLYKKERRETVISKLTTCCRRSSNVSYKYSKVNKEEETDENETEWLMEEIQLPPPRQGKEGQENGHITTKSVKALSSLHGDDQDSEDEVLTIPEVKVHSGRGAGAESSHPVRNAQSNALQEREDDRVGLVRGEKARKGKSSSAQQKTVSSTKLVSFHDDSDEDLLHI

“ATB200: a novel rhGAA carrying a higher M6P content”: the Kd at CI-MPR was 2 to 4 nM.

For the substance “Lumizyme: recombinant human acid α-glucosidase (rhGAA; Lumizyme, Sanofi Genzyme) used for treatment of Pompe disease”, in assay [1], the “levels of endosomal (Rab5) and lysosomal (LAMP1) markers” value is “remained the same as in the untreated GAA-deficient cells”. Moreover, in assay [2] (25 °C, average of three independent experiments), the Kd amounted to 14 ± 3.7 nM. Also, the “enlarged LAMP1-positive lysosomes” value in assay [3] is reported as “Enlarged lysosomes were seen; also recorded: can be detected”. In addition, the “processed, mature lysosomal form of rhGAA (76 kDa) in cells” value in assay [4] was “barely detectable”. Moreover, the “GAA activity in cell lysates” value in assay [5] was “only a slight increase (statistically insignificant)”.

As to “deglycosylated rhGAA: rhGAA treated with wild-type Endo-A to remove the high-mannose N-glycans including the M6P glycans”, in assay [2], the “affinity for CI-MPR (in words)” value is reported as “lost its binding affinity”.

Source of the values: paper PMC8480326, “Chemoenzymatic glycan-selective remodeling of a therapeutic lysosomal enzyme with high-affinity M6P-glycan ligands. Enzyme substrate specificity is the name of the game” (Chemical Science, 2021).
